{"source": "patent US7727993B2", "about": "“Administering adenosine A2A receptor antagonist to reduce or suppress side effects of parkinson's disease therapy” (Kyowa Hakko Kirin Co., Ltd., priority 2002, dated 2010)", "key": {"[1]": {"system": "MPTP-treated common marmosets", "experiment": "L-DOPA induced dyskinesia in MPTP-treated marmosets primed with L-DOPA (Example 5)", "type": "in vivo", "details": "L-DOPA 2.5 mg/kg oral", "procedure": "METHODS: MPTP (Sigma-Aldrich, St. Louis, Mo., USA) was dissolved in physiological saline and administered at a dose of 2.0 mg/kg s.c. daily for 5 days. Then, MPTP 2 mg/kg were further administered approximately 3 weeks.\nThe dyskinesia of the animals was scored using the rating scale described in Table 4. […] The score was calculated as the L-DOPA pre value. On the next day the animals received vehicle for the vehicle control value. […] Animals were assessed for dyskinesia on days 1, 3, 5, 7, 14, 21 and 28 according to the rating scale.\nAbnormal movement such as, orofacial movements, myoclonus and complex stereotypic behaviors (e.g., elaborate checking, obsessive grooming), are exclude from dyskinesia rating.\nRemarks According to Dyskinesia. Dystonia (arm, leg and trunk): abnormal sustained posture (ex. leg elevation). Stereotypic reaching (arm) Athetosis (arm and leg): writhing twisting movements. Chorea (arm and leg): abnormal rapid (dance like) movements of limbs. Akathisia: motor restlessness. Dyskinesia score is become higher according to severity of dyskinesia. The maximal score is four points."}, "[2]": {"system": "chronically L-DOPA-treated 6-hydroxydopamine lesion rats", "experiment": "Abnormal involuntary movements (AIMs) scoring, L-DOPA induced dyskinesia (Example 3)", "type": "in vivo, rat", "procedure": "6-hydroxydopamine (8 μg) was injected into the left medial forebrain bundle in a rat. One week after the lesion, the rats were then tested for contralateral turning by injecting apomorphine (0.1 mg/kg s.c.). Only those animals showing robust contralateral turning were used in subsequent experiments.\nDuring the chronic treatment of L-DOPA, recording of severity scale of AIMs were carried out. In addition, an amplitude-based scale for each limb and axial AIMs was scored during a microdialysis study. Amplitude scores of limb or axial AIMs (each ranging from 0 to 4) was rated based on both the magnitude of paw/limb translocation and of the visible involvement of distal versus proximal muscle groups or on the lateral deviation (or torsion) of an animal's neck and trunk from the longitudinal axis of its body, respectively."}, "MPTP cynomologus monkeys": {"system": "MPTP cynomologus monkeys", "experiment": "Chronic L-DOPA alone or with KW-6002 in drug-naive MPTP parkinsonian monkeys (Example 4)", "type": "in vivo", "details": "L-DOPA alone group versus L-DOPA plus KW-6002 group; week 3 and 4; FIG. 8", "procedure": "ANIMALS: 8 (eight) female drug-naïve cynomologus monkeys weighing between 3 and 5 kg were used. They were rendered parkinsonian by subcutaneous infusion of MPTP (0.5 mg daily) until development of an obvious parkinsonian Syndrome (akinesia, hunched posture and tremor associated with a disability score on our scale of 6 or more). The cumulative dose necessary was variable: from 3.5 to 23.5 mg. The animals were allowed to recover during at least one month except an animal who had to be treated earlier because of marked akinesia. They were scored at least once daily. The disability score remained stable throughout that period. […] The drug was administered orally with a special capsule handler. The animals in the KW-6002 group also received this compound (90 mg/kg) by the oral route. The animals were observed daily (from Monday to Friday) in their cages through a one-way screen and video recordings were made of significant events (abnormal behavior—dyskinesias). They were scored on disability scale and eventually dyskinesia rating scale, before and during the effect. The treatment with L-DOPA was continued for one month."}, "[3]": {"system": "6-hydroxydopamine lesion rats", "experiment": "In vivo microdialysis of GABA and glutamate in substantia nigra pars reticulata (Example 3)", "parameters": "species or system rat", "procedure": "GABA and glutamate concentrations in an output nucleus of basal ganglia, substantia nigra pars reticulata (SNr), are measured in the 6-hydroxydopamine lesion rats and the chronically L-DOPA-treated rats after 6-hydroxydopamine lesion. Effect of adenosine A2A receptor selective antagonists on GABA and glutamate levels in SNr and dyskinesias was examined. 6-hydroxydopamine (8 μg) was injected into the left medial forebrain bundle in a rat. One week after the lesion, the rats were then tested for contralateral turning by injecting apomorphine (0.1 mg/kg s.c.). Only those animals showing robust contralateral turning were used in subsequent experiments. […] Rats were placed in each test chamber and the microdialysis probe inserted into SNr was attached to a fluid swivel (TCS2-23, Eicom) that allowed free movement (also sustained rotational behavior). Probes were continuously perfused with a modified Ringer's solution (1.2 mmol/L CaCl2, 2.7 mmol/L KCl, 148 mmol/L NaCl, and 0.85 mmol/L MgCl2; pH 7, artificial cerebrospinal fluid solution) at a rate of 2 μL/min via a microinjection pump (CMA/100, Carnegie […] AB). After stabilization of basal level of release for 3-4 h, 4 samples (60 μL each) during 2 h of perfusion were collected using a fraction collector (CMA/140, Carnegie […]). […] The samples were immediately assayed or frozen and stored in a deep freeze (-80° C.) before assays. GABA and glutamate were analyzed using reverse phase high-performance liquid chromatograph with fluorescence detection after pre-column derivatization of the amino acids with orthophthaldialdehyde reagent. Lindroth and Mopper (1979)."}, "[4]": {"details": "L-DOPA treatment 2 weeks after 6-hydroxydopamine lesion"}, "[5]": {"details": "L-DOPA treatment 3 weeks after 6-hydroxydopamine lesion"}}, "note": "Entries after “also recorded” stand apart in the source; their conditions may differ."}
{"smiles": "N[C@@H](Cc1ccc(O)c(O)c1)C(=O)O", "note": "[L-DOPA]", "values": [{"measurement": "dyskinesias induced by L-DOPA", "setting": "[1]", "result": "mild dyskinesias"}, {"measurement": "average maximum AIM scores", "setting": "[2]; 2 to 3 weeks chronic L-DOPA, from 10 min to 3 hrs after L-DOPA administration", "result": 9}, {"measurement": "AIMs (sum of the amplitude score of limb and axial AIMs)", "setting": "[2]; chronically L-DOPA-treated rats, FIG. 4", "result": "marked AIMs"}, {"measurement": "level of dyskinesia", "setting": "MPTP cynomologus monkeys", "result": "reached a higher level"}, {"measurement": "nigral GABA level", "setting": "[3]; 6-hydroxydopamine lesion rats, change from pre-value, KW-6002 1 mg/kg p.o., FIG. 2A, 3A", "result": "facilitation; also recorded: significant increases"}, {"measurement": "nigral glutamate level", "setting": "[3]; 6-hydroxydopamine lesion rats, change from pre-value, KW-6002 1 mg/kg p.o., FIG. 2B, 3B", "result": "facilitation; also recorded: significant increases"}, {"measurement": "basal level of nigral GABA", "setting": "[3]; L-DOPA treatment 1 week (20 mg/kg orally twice a day) after 6-hydroxydopamine lesion", "result": "19.3 ± 2.3", "unit": "nmol/L"}, {"measurement": "basal level of nigral glutamate", "setting": "[3]; L-DOPA treatment 1 week after 6-hydroxydopamine lesion", "result": "147.5 ± 38.1", "unit": "nmol/L"}, {"measurement": "basal level of nigral GABA", "setting": "[3]; [4]", "result": "20.9 ± 6.8", "unit": "nmol/L"}, {"measurement": "basal level of nigral glutamate", "setting": "[3]; [4]", "result": "112.0 ± 47.1", "unit": "nmol/L"}, {"measurement": "basal level of nigral GABA", "setting": "[3]; [5]", "result": "23.6 ± 4.5", "unit": "nmol/L"}, {"measurement": "basal level of nigral glutamate", "setting": "[3]; [5]", "result": "425.4 ± 99.6", "unit": "nmol/L"}, {"measurement": "nigral GABA levels after administration", "setting": "[3]; chronically L-DOPA-treated 6-hydroxydopamine lesion rats, FIG. 5A", "result": "without effect"}, {"measurement": "nigral glutamate levels after administration", "setting": "[3]; chronically L-DOPA-treated 6-hydroxydopamine lesion rats, FIG. 5B", "result": "increased"}, {"measurement": "basal nigral glutamate concentration during chronic L-DOPA (in words)", "setting": "[3]; constant until 2 weeks", "result": "drastically increase in 3 weeks"}, {"measurement": "basal nigral GABA levels during chronic L-DOPA (in words)", "setting": "[3]; throughout 1 to 3 weeks", "result": "maintained unchanged"}]}
